Consider two compounds from the NIST ThermoML archive (doi:10.1016/j.jct.2017.01.001).

Numbers after ± are expanded uncertainties.

The nature of the data set: wn = mass fraction of the nth substance listed. The settings on record: 100 kPa, Liquid, Pycnometric method.

On to `O=C([O-])[O-].[K+].[K+]` [potassium carbonate] + O, for which the mass density by setting is: (323.15 K, w1 = 0.5495) 1583.2 ± 20 kg/m3; (343.15 K, w1 = 0.5753) 1594.3 ± 20 kg/m3; (363.15 K, w1 = 0.5961) 1626.5 ± 20 kg/m3.
On to `O=C([O-])[O-].[Na+].[Na+]` [sodium carbonate] + O, for which the mass density is, setting by setting: (323.15 K, w1 = 0.323) 1323.5 ± 20 kg/m3; (343.15 K, w1 = 0.3141) 1310.2 ± 20 kg/m3; (363.15 K, w1 = 0.3071) 1268.7 ± 20 kg/m3.

A word on the mass density: it is mass per unit of volume.
